Here are results for twelve compounds from ChEMBL document CHEMBL1201862, “PubChem BioAssay data set” (2004).

Test systems include A498; BT-549; UACC-257; SF-295; RPMI-8226; NCI-H226; OVCAR-8; K562; UO-31; HCC 2998; CAKI-1; PC-3; SK-MEL-2; OVCAR-3; COLO 205; SNB-19; NCI-H522; HT-29; HL-60.
Test in all cases: growth of human tumour cells (NCI), 48 h

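Five concentrations, 48 hours, 96-well plates. Here, GI50 denotes the concentration required for 50% inhibition of growth.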 Active and inactive are the calls of the source. No stated cut-off is given here; in the data, active = GI50 up to about 1.1 µM and inactive = higher.

For the compound `CSC12c3cc(C)n(-c4ccccc4)c3CC(C)(C)CN1C(=O)C2Oc1ccccc1` (configuration not stated), the GI50 with A498 was 54 µM (inactive); in the assay with BT-549 it was 85.7 µM (inactive); with UACC-257 it was 19.1 µM (inactive); in the assay with SF-295, 8.18 µM (inactive); in the assay with RPMI-8226 it was 7.08 µM (inactive); with NCI-H226, 24.9 µM (inactive). Moreover, the GI50 in the assay with OVCAR-8 was 97.3 µM (inactive); in the assay with K562, 32.1 µM (inactive); in the assay with UO-31, 25.7 µM (inactive); in the assay on HCC 2998, 41.2 µM (inactive); with CAKI-1 it was > 100 µM (inactive); in the assay on PC-3, 35.2 µM (inactive). Also, the GI50 was 72.8 µM (inactive) with SK-MEL-2, > 100 µM (inactive) in the assay on OVCAR-3, 30.5 µM (inactive) with COLO 205 and > 100 µM (inactive) with SNB-19.
Consider `NC(=O)C(NC=O)c1ccccc1` (configuration not stated), for which the GI50 in the assay with NCI-H522, in the assay on BT-549, in the assay on UACC-257, with SF-295, in the assay with OVCAR-8 and with K562 was > 100 µM (inactive) each time. For the same compound, the GI50 in the assay on HT-29, in the assay with UO-31, with HCC 2998, in the assay on CAKI-1, in the assay with PC-3 and with OVCAR-3 was > 100 µM (inactive) each time. Moreover, the GI50 in the assay with HL-60, in the assay with COLO 205 and with SNB-19 was > 100 µM (inactive) in each case.
As for `O=[As](O)(O)c1ccc(/N=N/c2ccc([As](=O)(O)O)cc2)cc1`, the GI50 with NCI-H522, with A498, with BT-549, in the assay with UACC-257, with SF-295 and in the assay with NCI-H226 was > 100 µM (inactive) in each case. Also, the GI50 with OVCAR-8, in the assay on K562, in the assay with HT-29, in the assay on UO-31, with CAKI-1 and in the assay with PC-3 was > 100 µM (inactive) each time. Besides, the GI50 in the assay with SK-MEL-2, in the assay with OVCAR-3, in the assay on HL-60 and in the assay on SNB-19 was > 100 µM (inactive) in each case.
For `CC(Br)C(=O)NN1C2=C(Nc3ccccc31)c1cccc3cccc2c13` (configuration not stated), the GI50 was 92 µM (inactive) in the assay on NCI-H522; > 100 µM (inactive) in the assay with BT-549; 48.2 µM (inactive) in the assay with UACC-257; 39.3 µM (inactive) with SF-295; 48.4 µM (inactive) with RPMI-8226; > 100 µM (inactive) in the assay with NCI-H226. The GI50 with OVCAR-8 was 55.8 µM (inactive); in the assay on K562 it was > 100 µM (inactive); with HT-29 it was 49.1 µM (inactive); with UO-31, > 100 µM (inactive); in the assay with HCC 2998, 13.5 µM (inactive); with CAKI-1, 74 µM (inactive). Also, the GI50 is > 100 µM (inactive) with PC-3; 49.3 µM (inactive) in the assay with OVCAR-3; 57.5 µM (inactive) in the assay with HL-60; 75.5 µM (inactive) with COLO 205; > 100 µM (inactive) in the assay with SNB-19.
Consider `C=C1[C@H](OCC(C)C)[C@@H](OCC(C)C)[C@@H](O)C(C)(C)/C=C/[C@H](C)C(=O)[C@@]2(O)C[C@H](C)[C@H](O)[C@@H]2[C@H]1OCC(C)C`, for which the GI50 in the assay on NCI-H522 was > 7.5 µM (inactive); in the assay on A498, 3.23 µM (inactive); with BT-549 it was > 7.5 µM (inactive); in the assay on UACC-257, > 7.5 µM (inactive); with SF-295 it was 2.51 µM (inactive); in the assay with OVCAR-8 it was > 7.5 µM (inactive). Further, the GI50 in the assay on K562 is 0.538 µM (active); with UO-31, 6.52 µM (inactive); with HCC 2998, > 7.5 µM (inactive); in the assay with CAKI-1, 2.57 µM (inactive); in the assay on PC-3, > 7.5 µM (inactive); in the assay on SK-MEL-2 it was > 7.5 µM (inactive). In addition, the GI50 in the assay with OVCAR-3 was > 7.5 µM (inactive); in the assay with COLO 205, 2.13 µM (inactive); with SNB-19, > 7.5 µM (inactive).
On to `COc1ccc(C2NC(=S)Nc3c2c(=O)oc2c3ccc3ccccc32)cc1` (configuration not stated), for which the GI50 in the assay on NCI-H522 was > 100 µM (inactive); with A498, 38.9 µM (inactive); in the assay with BT-549 it was 45.7 µM (inactive); with UACC-257, > 100 µM (inactive); with SF-295 it was 59.3 µM (inactive); in the assay with RPMI-8226, 47.6 µM (inactive). The GI50 in the assay on NCI-H226 was 32.2 µM (inactive); with OVCAR-8, 92.3 µM (inactive); in the assay on K562, 56.9 µM (inactive); in the assay on HT-29 it was > 100 µM (inactive); with UO-31, 77.1 µM (inactive); in the assay on CAKI-1, 58.3 µM (inactive). The GI50 in the assay on PC-3 is 54.7 µM (inactive); in the assay on SK-MEL-2, 44.1 µM (inactive); in the assay on OVCAR-3, > 100 µM (inactive); in the assay on HL-60, 92.3 µM (inactive); with COLO 205 it was > 100 µM (inactive); in the assay with SNB-19, 35.7 µM (inactive).
As to `CC(C)(C)OC(=O)N/N=C(/N)Cc1ccc(Cl)cc1`, the GI50 in the assay on NCI-H522, with A498, in the assay on BT-549, in the assay on UACC-257, in the assay on SF-295 and with NCI-H226 was > 100 µM (inactive) each time. Also, the GI50 in the assay with OVCAR-8 is > 100 µM (inactive); in the assay with K562 it was 37.2 µM (inactive); in the assay on HT-29, 73.1 µM (inactive); in the assay on UO-31, > 100 µM (inactive); in the assay with HCC 2998, > 100 µM (inactive); in the assay with CAKI-1 it was > 100 µM (inactive). Also, the GI50 with PC-3, in the assay on SK-MEL-2, in the assay with OVCAR-3, in the assay with COLO 205 and in the assay with SNB-19 was > 100 µM (inactive) throughout.
`COC(=O)[C@@]12CC[C@]1(C(=O)OC)C1C(C)=CC(=O)O[C@@]12C` (some centres not stated): the GI50 in the assay on NCI-H522, in the assay on BT-549, with UACC-257, with SF-295, in the assay on RPMI-8226 and in the assay with NCI-H226 was > 100 µM (inactive) in each case. For the same compound, the GI50 in the assay with OVCAR-8, in the assay with K562, with HT-29, with UO-31, in the assay on HCC 2998 and with PC-3 was > 100 µM (inactive) each time. Besides, the GI50 with OVCAR-3, in the assay with HL-60, in the assay with COLO 205 and in the assay with SNB-19 was > 100 µM (inactive) throughout.
`Cc1ccc(C(C2C(=O)N(C)C(=O)N(C)C2=O)C(F)(F)C(=O)N(C)C)cc1` (configuration not stated): the GI50 in the assay with A498, with BT-549, in the assay on UACC-257, in the assay with SF-295, in the assay with RPMI-8226 and in the assay with NCI-H226 was > 100 µM (inactive) throughout. The GI50 with OVCAR-8, in the assay on UO-31, in the assay on HCC 2998, in the assay with CAKI-1, in the assay with PC-3 and in the assay with SK-MEL-2 was > 100 µM (inactive) throughout. The GI50 in the assay on OVCAR-3, in the assay on COLO 205 and in the assay with SNB-19 was > 100 µM (inactive) throughout.
For `CC1(C)C(=O)N(O)C(C)(C)N1N=O`, the GI50 in the assay with NCI-H522 is > 10 µM (inactive); in the assay with BT-549, > 10 µM (inactive); in the assay with UACC-257, > 10 µM (inactive); in the assay with SF-295 it was > 10 µM (inactive); in the assay with RPMI-8226, 1.89 µM (inactive); in the assay on NCI-H226, > 10 µM (inactive). The GI50 in the assay with OVCAR-8, in the assay with K562, in the assay on HT-29, in the assay on UO-31, in the assay on HCC 2998 and in the assay on CAKI-1 was > 10 µM (inactive) in each case. In addition, the GI50 in the assay on PC-3, with SK-MEL-2, in the assay with OVCAR-3, with HL-60, in the assay with COLO 205 and with SNB-19 was > 10 µM (inactive) each time.
As to `COc1cc(-c2cc(=O)c3c(OC)c(OC)c(OC)c(OC)c3o2)c(OC)c(OC)c1OC`, the GI50 in the assay with NCI-H522 is 20.7 µM (inactive); in the assay on BT-549, 17.6 µM (inactive); in the assay with UACC-257 it was 42.3 µM (inactive); in the assay with SF-295, 43.8 µM (inactive); in the assay with RPMI-8226, 24.5 µM (inactive); in the assay on NCI-H226, 38.1 µM (inactive). The GI50 was 28.6 µM (inactive) with OVCAR-8; 60.3 µM (inactive) with K562; 31 µM (inactive) with HT-29; 21.6 µM (inactive) in the assay with UO-31; 49.3 µM (inactive) with HCC 2998; 27.5 µM (inactive) in the assay with CAKI-1. The GI50 in the assay with PC-3 was 14.3 µM (inactive); in the assay on SK-MEL-2, 20.5 µM (inactive); with HL-60 it was 46.7 µM (inactive); in the assay on COLO 205 it was 45.8 µM (inactive); in the assay with SNB-19, 98.6 µM (inactive).
With `O=C1NC(=O)C(C(CC(=O)c2ccc([N+](=O)[O-])cc2)c2ccccc2)C(=O)N1` (configuration not stated), the GI50 in the assay on NCI-H522 was 47.2 µM (inactive); in the assay with A498, > 100 µM (inactive); with BT-549, > 100 µM (inactive); in the assay with UACC-257 it was > 100 µM (inactive); with SF-295 it was 4.79 µM (inactive); with RPMI-8226 it was 31.3 µM (inactive). The GI50 was > 100 µM (inactive) in the assay with NCI-H226; > 100 µM (inactive) with OVCAR-8; 60.3 µM (inactive) in the assay with K562; 52.2 µM (inactive) in the assay with HT-29; > 100 µM (inactive) in the assay with UO-31; 55.8 µM (inactive) in the assay with PC-3. For the same compound, the GI50 is > 100 µM (inactive) in the assay on SK-MEL-2; 36.7 µM (inactive) in the assay on OVCAR-3; > 100 µM (inactive) with HL-60; > 100 µM (inactive) in the assay on COLO 205; 24.8 µM (inactive) in the assay with SNB-19.
